Patent EP3375430A1, “FRAGRANCE COMPOSITIONS” (Takasago International Corporation, priority 2017, dated 2018)

How the values were obtained:
[1] = Headspace concentration of fragrance ingredients over blotter (thermal desorption GC-MS); format: physicochemical; conditions: fragrance TAK; after 1 hour; both control EdT1 and composition C1; Figure 2
Method: The headspace concentration of individual ingredients of fragrance TAK, as formulated in either a conventional EdT (EdT1) or a fragrance composition of the invention (C1), was assessed by the method described below.
A 10 cm length was cut from a standard perfumers' blotter. A sample of 100µL volume was applied to the upper surface of the blotter with a syringe. The blotter was placed on a hot plate thermostatted at 32°C and left to equilibrate for 5 minutes. Two desorption tubes (6cm length 4mm internal diameter) each containing 2 cm length of Tenax TA adsorbent were fitted to the glass part of a headspace apparatus shown in figure 9. The glass part was fitted over the blotter, a metering pump was connected to one of the desorption tubes and air was drawn through the apparatus flushing the headspace over the blotter at a rate of 17mL/min. Sampling continued for about 16.5 minutes until 280mL of air had been extracted. Then the outlet desorption tube was analysed by gas chromatography as described below. The glass part was removed from the blotter which was left on the hotplate until the next sampling time when two fresh desorption tubes were fitted and the extraction procedure repeated for a further 280mL of extracted headspace.
• Initial Temp: 50°C • Initial Time: 5 min • Rate: 3°C /min • Final Temp: 250°C • Final Time: 20 min • Run Time: 91.67 min
• Column: HP-5MS 30m * 0.25mm * 0.25µm • Gas: Helium • Constant pressure 12.675 psi
• Initial Temp: -30°C • Equilibration Time: 0.05 min • Initial Time: 0.00 min • Rate 12°C / min • End Temp: 260°C • Hold Time: 10 min
Temperature program • Initial Temp: 35°C • Delay Time: 0.30 min • Initial Time: 0.00 min • Rate: 30°C / min • End Temp: 250°C • Hold Time: 5.00 min
TDU Settings • Transfer Temp: 250°C • Transfer Temp Mode: Fixed • Desorption Mode: splitless • Sample mode: Retain tube - standby cooling • Standby Temp: 50°C
Detector MS • MS 5973 • Mass range: 35 to 350 • Threshold: 150 • Mass Quad: 150°C • Mass Source: 230°C
Following the procedure of example 2, the headspace concentration of representative ingredients of fragrance COM1 was determined. COM1 was dosed at 5 and 20 % either in control EdT3 and EdT4 or in compositions of the invention C7 and C8, as shown in table 10.
The headspace concentration of individual ingredients of fragrance TAK (see Table 1), as formulated in either a conventional EdT (EdT1) or fragrance compositions of the invention (C14, C15), was assessed by the method described in example 2.

[2] = Amount of fragrance ingredients retained on paper blotter after evaporation (ethanol extraction, GC-MS); format: physicochemical
Method: A fragrance (hereafter fragrance TAK, the formulation of which is shown in table 1) was formulated in a typical Eau de Toilette (EdT1) or in fragrance compositions according to the invention (compositions C1 to C4), as shown in table 2. The amount of individual fragrance ingredients retained on paper substrate (blotter) after set time periods was assessed by the following method.
100µL samples of either EdT1 or compositions C1 to C4 were applied to 4.5cm long standard paper blotters with a microsyringe. Three replicate blotters were prepared for each extraction time. After the appropriate evaporation time each of the 3 blotters was transferred to a 30mL glass bottle. 3mL of ethanol and 50µL of a 1% solution of methyl decanoate in ethanol as an internal standard were added. The bottle was sealed and placed on a roller bed to extract the blotter for 1 hour. A sample of the extracting solution was transferred to a vial which was sealed and analysed by gas chromatography (GC 6890) with a Mass Spectrometer detector (MS 5973) using the method described below. The results of the three replicate measurements were averaged. At exact times the same extraction was repeated on the remaining blotters which were stored on a warm surface at 32°C open to the air to allow evaporation. The gas chromatography conditions were as given below.
• Initial Temp: 50°C • Initial Time: 2 min • Rate: 10°C /min • Final Temp: 280°C • Final Time: 5 min • Run Time: 30 min
• Column: HP-5MS 30m * 0.25mm * 0.25µm • Gas: Helium • Constant Pressure 18.55 psi
• Split mode Ratio 40:1 • Inlet Temp: 250°C
• MS 5973 • Mass range: 35 to 350 • Threshold: 100 • Mass Quad: 150°C • Mass Source: 230°C
To simplify the results the average amount of each fragrance ingredient from the 3 samples measured at time zero was set at 100% and all other measurements were then related to that value so tables 3 to 6 show decreasing amounts of fragrance ingredients as a percentage of the initial amount.
The method of example 1 was repeated using a commercial fragrance (hereafter fragrance COM1, the formulation of which is given in table 7) formulated in a typical Eau de Toilette (EdT2) or in fragrance compositions according to the invention (compositions C5 and C6), as shown in table 8.

Compound: CCCCCCOC(C)=O [Hexyl acetate, Hexyl Acetate]
- headspace presence of ingredient [1]: lost
- amount of fragrance ingredient retained on blotter (percentage of the initial amount) ([2]; Table 3, fragrance TAK in C1, 15 min, 32°C): 41%
- amount of fragrance ingredient retained on blotter (percentage of the initial amount) ([2]; Table 3, fragrance TAK in C1, 60 min, 32°C): 5%
- amount of fragrance ingredient retained on blotter (percentage of the initial amount) ([2]; Table 3, fragrance TAK in C1, 120 min, 32°C): 2%
- amount of fragrance ingredient retained on blotter (percentage of the initial amount) ([2]; Table 3, fragrance TAK in C1, 240 min, 32°C): 2%
- amount of fragrance ingredient retained on blotter (percentage of the initial amount) ([2]; Table 3, fragrance TAK in C1, 480 min, 32°C): 2%
- amount of fragrance ingredient retained on blotter (percentage of the initial amount) ([2]; Table 3, fragrance TAK in EdT1, 15 min, 32°C): 13%
- amount of fragrance ingredient retained on blotter (percentage of the initial amount) ([2]; Table 3, fragrance TAK in EdT1, 60 min, 32°C): 2%
- amount of fragrance ingredient retained on blotter (percentage of the initial amount) ([2]; Table 3, fragrance TAK in EdT1, 120 min, 32°C): 2%
- amount of fragrance ingredient retained on blotter (percentage of the initial amount) ([2]; Table 3, fragrance TAK in EdT1, 240 min, 32°C): 1%
- amount of fragrance ingredient retained on blotter (percentage of the initial amount) ([2]; Table 3, fragrance TAK in EdT1, 480 min, 32°C): <1%
- amount of fragrance ingredient retained on blotter (percentage of the initial amount) ([2]; Table 3, fragrance TAK in EdT1 or C1, T0, set at 100% (normalisation)): 100%
- amount of fragrance ingredient retained on blotter (percentage of the initial amount) ([2]; Table 4, fragrance TAK in C2, 15 min, 32°C): 54%
- amount of fragrance ingredient retained on blotter (percentage of the initial amount) ([2]; Table 4, fragrance TAK in C2, 480 min, 32°C): <1%
- amount of fragrance ingredient retained on blotter (percentage of the initial amount) ([2]; Table 4, fragrance TAK in EdT1, 15 min, 32°C): 15%
- amount of fragrance ingredient retained on blotter (percentage of the initial amount) ([2]; Table 4, fragrance TAK in EdT1, 480 min, 32°C): 6%
- amount of fragrance ingredient retained on blotter (percentage of the initial amount) ([2]; Table 4, fragrance TAK in EdT1 or C2, T0, set at 100% (normalisation)): 100%
- amount of fragrance ingredient retained on blotter (percentage of the initial amount) ([2]; Table 5, fragrance TAK in C3, 15 min, 32°C): 43%
- amount of fragrance ingredient retained on blotter (percentage of the initial amount) ([2]; Table 5, fragrance TAK in C3, 60 min, 32°C): 5%
- amount of fragrance ingredient retained on blotter (percentage of the initial amount) ([2]; Table 5, fragrance TAK in C3, 120 min, 32°C): 2%
- amount of fragrance ingredient retained on blotter (percentage of the initial amount) ([2]; Table 5, fragrance TAK in C3, 240 min, 32°C): 2%
- amount of fragrance ingredient retained on blotter (percentage of the initial amount) ([2]; Table 5, fragrance TAK in C3, 480 min, 32°C): 2%
- amount of fragrance ingredient retained on blotter (percentage of the initial amount) ([2]; Table 5, fragrance TAK in C3, 1440 min, 32°C): 2%
- amount of fragrance ingredient retained on blotter (percentage of the initial amount) ([2]; Table 5, fragrance TAK in EdT1, 15 min, 32°C): 13%
- amount of fragrance ingredient retained on blotter (percentage of the initial amount) ([2]; Table 5, fragrance TAK in EdT1, 60 min, 32°C): 2%
- amount of fragrance ingredient retained on blotter (percentage of the initial amount) ([2]; Table 5, fragrance TAK in EdT1, 120 min, 32°C): 2%
- amount of fragrance ingredient retained on blotter (percentage of the initial amount) ([2]; Table 5, fragrance TAK in EdT1, 240 min, 32°C): 1%
- amount of fragrance ingredient retained on blotter (percentage of the initial amount) ([2]; Table 5, fragrance TAK in EdT1, 480 min, 32°C): <1%
- amount of fragrance ingredient retained on blotter (percentage of the initial amount) ([2]; Table 5, fragrance TAK in EdT1, 1440 min, 32°C): <1%
- amount of fragrance ingredient retained on blotter (percentage of the initial amount) ([2]; Table 5, fragrance TAK in EdT1 or C3, T0, set at 100% (normalisation)): 100%
- amount of fragrance ingredient retained on blotter (percentage of the initial amount) ([2]; Table 6, fragrance TAK in C4, 15 min, 32°C): 41%
- amount of fragrance ingredient retained on blotter (percentage of the initial amount) ([2]; Table 6, fragrance TAK in C4, 60 min, 32°C): 5%
- amount of fragrance ingredient retained on blotter (percentage of the initial amount) ([2]; Table 6, fragrance TAK in C4, 120 min, 32°C): 5%
- amount of fragrance ingredient retained on blotter (percentage of the initial amount) ([2]; Table 6, fragrance TAK in C4, 240 min, 32°C): 4%
- amount of fragrance ingredient retained on blotter (percentage of the initial amount) ([2]; Table 6, fragrance TAK in C4, 480 min, 32°C): 3%
- amount of fragrance ingredient retained on blotter (percentage of the initial amount) ([2]; Table 6, fragrance TAK in EdT1, 15 min, 32°C): 13%
- amount of fragrance ingredient retained on blotter (percentage of the initial amount) ([2]; Table 6, fragrance TAK in EdT1, 60 min, 32°C): 2%
- amount of fragrance ingredient retained on blotter (percentage of the initial amount) ([2]; Table 6, fragrance TAK in EdT1, 120 min, 32°C): 2%
- amount of fragrance ingredient retained on blotter (percentage of the initial amount) ([2]; Table 6, fragrance TAK in EdT1, 240 min, 32°C): 1%
- amount of fragrance ingredient retained on blotter (percentage of the initial amount) ([2]; Table 6, fragrance TAK in EdT1, 480 min, 32°C): <1%
- amount of fragrance ingredient retained on blotter (percentage of the initial amount) ([2]; Table 6, fragrance TAK in EdT1 or C4, T0, set at 100% (normalisation)): 100%
